# Data: patent publication US9833423B2 (KOREA RESEARCH INSTITUTE OF CHEMICAL TECHNOLOGY, priority 2011, dated 2017)
# Where two headings read alike, the source gives them in different places.
# Experiments:
# Coxsackie-virus B1 = assay: Cytopathic effect (CPE) inhibition assay; type: cell-based, Coxsackievirus B1; conditions: Enterovirus B, HeLa37, 48 h, HeLa, 37° C., 2 days
# in vitro = conditions: human
# Coxsackie-virus B3 = assay: Cytopathic effect (CPE) inhibition assay; type: cell-based, Coxsackievirus B3; conditions: Enterovirus B, HeLa37, 48 h, HeLa, 37° C., 2 days
# Polio-virus 3 = assay: microbe, parasite or virus in culture; type: cell-based, Poliovirus 3; conditions: Enterovirus C, HeLa37, 48 h, read-out: Polio-virus 3 EC50
# [1] = Table 3, read-out: EC50 Coxsackie-virus B1
# [2] = Table 4, read-out: Coxsackie-virus B3 EC50
# [3] = Table 4, read-out: Coxsackie-virus B1 EC50
SMILES,melting point [°C],EC50 (Coxsackie-virus B1; [1]) [µg/mL],CC50 (in vitro; CC50) [µg/mL],"EC50 (Coxsackie-virus B3; Table 3, read-out: EC50 Coxsackie-virus B3) [µg/mL]",EC50 (Coxsackie-virus B3; [2]) [µg/mL],EC50 (Coxsackie-virus B1; [3]) [µg/mL],CC50 (in vitro; Picorna-virus CC50) [µg/mL],EC50 (Polio-virus 3) [µg/mL]
"CC(=O)Oc1cc(C(C)(C)C)ccc1C1(OC(C)=O)C(=O)c2ccccc2C1=O [Example 15, 2-(2-Acetoxy-1,3-dioxo-2,3-dihydro-1H-inden-2-yl)-5-tert-butylphenyl acetate]",119 to 120,0.015,8.26,,,,,
"CCC(=O)Oc1cc(C(C)C)ccc1C1(OC(=O)CC)C(=O)c2ccccc2C1=O [Example 21, 2-(1,3-Dioxo-2-(propionyloxy)-2,3-dihydro-1H-inden-2-yl)-5-isopropylphenyl propionate]",123 to 125,< 0.01,16,,,,,
"CCCC(=O)Oc1cc(C(C)C)ccc1C1(OC(=O)CCC)C(=O)c2ccccc2C1=O [Example 22, 2-(2-(Butyryloxy)-1,3-dioxo-2,3-dihydro-1H-inden-2-yl)-5-isopropylphenyl butyrate]",98 to 102,< 0.01,33.8,,,,,
"CC(C)c1ccc(C2(OC(=O)c3ccccc3)C(=O)c3ccccc3C2=O)c(O)c1 [Example 23, 2-(2-Hydroxy-4-isopropylphenyl)-1,3-dioxo-2,3-dihydro-1H-inden-2-yl benzoate]",117 to 119,< 0.01,44.3,,,,,
"CC(C)c1ccc(C2(O)C(=O)c3ccccc3C2=O)c(OC(=O)/C=C/c2ccccc2)c1 [Example 30, 2-(2-Hydroxy-1,3-dioxo-2,3-dihydro-1H-inden-2-yl)-5-isopropylphenyl cinnamate]",95 to 97,< 0.01,> 100,,,,,
"COC(=O)NC1(c2ccc(C(C)C)cc2OC(=O)OC)C(=O)c2ccccc2C1=O [Example 48, Methyl 2-(4-isopropyl-2(methoxycarbonyloxy)phenyl)-1,3-dioxo-2,3-dihydro-1H-inden-2-yl carbamate]",,< 0.01,46.7,< 0.01,,,,
"COc1cc(C(C)C)ccc1C1(NC(C)=O)C(=O)c2ccccc2C1=O [Example 54, N-(2-(4-Isopropyl-2-methoxyphenyl)-1,3-dioxo-2,3-dihydro-1H-inden-2-yl)acetamide]",222 to 224,0.0198,> 117,,,,,
"CCCC(=O)NC1(c2ccc(C(C)C)cc2OC(=O)CCC)C(=O)c2ccccc2C1=O [Example 76, Butyric acid 2-(2-butyrylamino-1,3-dioxo-indan-2-yl)-5-isopropyl-phenyl ester]",,,,,< 0.04,< 0.01,45.1,
"CCCCCC(=O)NC1(c2ccc(C(C)C)cc2OC(=O)CCCCC)C(=O)c2ccccc2C1=O [Example 78, Hexanoic acid 2-(2-hexanoylamino-1,3-dioxo-indan-2-yl)-5-isopropyl-phenyl ester]",,,,,< 0.01,< 0.01,68.2,
"CCCCCCC(=O)NC1(c2ccc(C(C)C)cc2OC(=O)CCCCCC)C(=O)c2ccccc2C1=O [Example 79, Heptanoic acid 2-(2-heptanoylamino-1,3-dioxo-indan-2-yl)-5-isopropyl-phenyl ester]",,,,,< 0.01,< 0.01,8.94,
"CCCCC(=O)NC1(c2ccc(C(C)C)cc2OC(=O)C(C)(C)C)C(=O)c2ccccc2C1=O [Example 80, 2,2-Dimethyl-propionic acid 2-(1,3-dioxo-2-pentanoylamino-indan-2-yl)-5-isopropyl-phenyl ester]",,,,,< 0.01,< 0.01,> 100,
"CCCCC(=O)NC1(c2ccc(C(C)C)cc2OC(=O)CCCC)C(=O)c2cccc(N)c2C1=O (stereo not drawn) [Example 81, 2-(4-amino-1,3-dioxo-2-pentanamido-2,3-dihydro-1H-inden-2-yl)-5-isopropylphenyl pentanoate]",,,,,< 0.01,< 0.01,41.3,0.012
"CCCCCC(=O)NC1(c2ccc(C(C)C)cc2OC(=O)CCCCC)C(=O)c2cccc(N)c2C1=O (stereo not drawn) [Example 82, 2-(4-Amino-2-hexanamido-1,3-dioxo-2,3-dihydro-1H-inden-2-yl)-5-isopropylphenyl hexanoate]",,,,,< 0.02,< 0.01,> 100,0.015
"CCCCCCC(=O)NC1(c2ccc(C(C)C)cc2OC(=O)CCCCCC)C(=O)c2cccc(N)c2C1=O (stereo not drawn) [Example 83, 2-(4-Amino-2-heptanamido-1,3-dioxo-2,3-dihydro-1H-inden-2-yl)-5-isopropylphenyl heptanoate]",,,,,< 0.01,< 0.01,> 100,
"CCC(=O)NC1(c2ccc(C(C)C)cc2OC(=O)CC)C(=O)c2cccc(N)c2C1=O (stereo not drawn) [Example 84, 2-(4-Amino-1,3-dioxo-2-propionamido-2,3-dihydro-1H-inden-2-yl)-5-isopropylphenyl propionate]",,,,,< 0.01,< 0.01,> 100,
"CCCC(=O)NC1(c2ccc(C(C)C)cc2OC(=O)CCC)C(=O)c2cccc(N)c2C1=O (stereo not drawn) [Example 85, 2-(4-Amino-2-butyramido-1,3-dioxo-2,3-dihydro-1H-inden-2-yl)-5-isopropylphenyl butyrate]",,,,,< 0.03,< 0.01,45.9,0.015
"COC(=O)Oc1cc(C(C)C)ccc1C1(NC(C)=O)C(=O)c2ccccc2C1=O [Example 92, 2-(2-Acetamido-1,3-dioxo-2,3-dihydro-1H-inden-2-yl)-5-isopropylphenyl methyl carbonate]",,,,,< 0.01,< 0.01,43.6,
"CCCCC(=O)Oc1cc(C(C)C)ccc1C1(NC(C)=O)C(=O)c2ccccc2C1=O [Example 93, 2-(2-Acetamido-1,3-dioxo-2,3-dihydro-1H-inden-2-yl)-5-isopropylphenyl pentanoate]",,,,,< 0.01,< 0.01,35.2,
"CC(=O)Nc1ccc([N+](=O)[O-])c2c1C(=O)C(O)(c1cc(C)c(C)cc1NC(=O)C(C)C)C2=O (stereo not drawn) [Example 94, N-(2-(4-Acetamido-2-hydroxy-7-nitro-1,3-dioxo-2,3-dihydro-1H-inden-2-yl)-4,5-dimethylphenyl)isobutyramide]",,,,,< 0.01,< 0.01,39.2,
"CC(C)C(=O)Nc1cc(C(C)C)ccc1C1(O)C(=O)c2ccccc2C1=O [Example 95, N-(2-(2-Hydroxy-1,3-dioxo-2,3-dihydro-1H-inden-2-yl)-5-isopropylphenyl)isobutyramide]",,,,,< 0.01,< 0.01,27.4,
"CC(=O)NC1(c2ccc(C(C)C)cc2OC(=O)Oc2ccccc2)C(=O)c2ccccc2C1=O [Example 99, Carbonic acid 2-(2-acetylamino-1,3-dioxo-indan-2-yl)-5-isopropyl-phenyl ester phenyl ester]",,,,,< 0.01,< 0.01,38.1,
"CCOC(=O)Oc1cc(C(C)C)ccc1C1(NC(C)=O)C(=O)c2ccccc2C1=O [Example 101, 2-(2-Acetamido-1,3-dioxo-2,3-dihydro-1H-inden-2-yl)-5-isopropylphenyl ethyl carbonate]",,,,,< 0.01,< 0.01,46,
"CCOC(=O)N(C(C)=O)C1(c2ccc(C(C)C)cc2O)C(=O)c2ccccc2C1=O [Example 102, Ethyl acetyl(2-(2-hydroxy-4-isopropylphenyl)-1,3-dioxo-2,3-dihydro-1H-inden-2-yl)carbamate]",,,,,< 0.01,< 0.01,42.5,
